In PubChem BioAssay (NCI) one finds TGI data, which are given here for twelve compounds.

SMILES strings stand for the structures.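 Grown in 96-well plates, cells were treated for 48 hours with each compound at five concentrations. Insufficient inhibition: endpoint recorded as highest concentration tested. TGI: concentration producing complete growth inhibition.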

Some test systems named below: HCC-2998 colon; NCI-H23 lung; COLO 205 colon; UO-31 renal; M14 melanoma; A549 NSCLC; KM12 colon; DU-145 prostate; IGROV1 ovarian; HOP-92 NSCLC.
Assay in all cases: inhibition of tumour cell growth, NCI panel, 48 h

In the case of `c1cc2cc3c4c5c(cc6ccc7cc8cc9c%10c8c8c7c6c5c8c5c%10c(c1C9N1CCOCCOCCOCCOCCOCC1)c2c45)C3` (stereo not given), the TGI in the experiment on HCC-2998 colon, in the experiment on NCI-H23 lung, in the experiment with COLO 205 colon, in the experiment on UO-31 renal, with M14 melanoma and in the experiment on A549 NSCLC was greater than 100 µM throughout. Moreover, the TGI in the experiment on KM12 colon, with DU-145 prostate, with IGROV1 ovarian and with HOP-92 NSCLC was greater than 100 µM in each case.

With `O=[N+]([O-])c1ccc(N2N=C(c3c(O)ccc4ccccc34)CC2c2ccc(Cl)cc2)c([N+](=O)[O-])c1` (stereo not given), the TGI in the experiment on HCC-2998 colon is greater than 100 µM; with NCI-H23 lung it was greater than 100 µM; in the experiment on COLO 205 colon it was 29.5 µM; in the experiment on UO-31 renal, greater than 100 µM; in the experiment with M14 melanoma, 71 µM; in the experiment with A549 NSCLC it was 88.1 µM. Further, the TGI with KM12 colon was 45.5 µM; in the experiment on DU-145 prostate, greater than 100 µM; in the experiment with IGROV1 ovarian, greater than 100 µM; with HOP-92 NSCLC it was greater than 100 µM.

As to `Clc1ccc(-c2nn3c(COc4cccc(OCc5nnc6sc(-c7ccc(Cl)cc7)nn56)c4)nnc3s2)cc1`, the TGI in the experiment with HCC-2998 colon was 96.2 µM; with NCI-H23 lung, 71.3 µM; with COLO 205 colon, 82.9 µM; in the experiment with UO-31 renal, 39.6 µM; in the experiment on M14 melanoma it was 75.9 µM; in the experiment on A549 NSCLC, 73.2 µM. The TGI was greater than 100 µM in the experiment on KM12 colon, 74.3 µM with DU-145 prostate, greater than 100 µM in the experiment on IGROV1 ovarian and greater than 100 µM with HOP-92 NSCLC.

`COC(=O)/C=C\n1nc(Br)c(=O)[nH]c1=O`: the TGI in the experiment with HCC-2998 colon, in the experiment on NCI-H23 lung, in the experiment with COLO 205 colon, with UO-31 renal, with M14 melanoma and in the experiment with A549 NSCLC was greater than 100 µM throughout. The TGI with KM12 colon, with DU-145 prostate, with IGROV1 ovarian and with HOP-92 NSCLC was greater than 100 µM throughout.

Turning to `C=C(CN(CC)CC)C1(c2ccccc2)CC2(CCCC2)C(=O)O1` (stereo not given), the TGI with HCC-2998 colon was greater than 100 µM; with NCI-H23 lung, 98.9 µM; with COLO 205 colon, greater than 100 µM; in the experiment with UO-31 renal it was greater than 100 µM; in the experiment with M14 melanoma, greater than 100 µM; with A549 NSCLC, greater than 100 µM. Besides, the TGI was greater than 100 µM in the experiment with KM12 colon, greater than 100 µM in the experiment with DU-145 prostate, greater than 100 µM in the experiment on IGROV1 ovarian and 83.3 µM in the experiment with HOP-92 NSCLC.

In the case of `COc1c(C)c(C/C=C(\C)CCCC(C)CCCC(C)CCCC(C)C)c(OC)c2ccccc12` (stereo not given), the TGI with HCC-2998 colon, with NCI-H23 lung, in the experiment with COLO 205 colon, in the experiment with UO-31 renal, with M14 melanoma and in the experiment with A549 NSCLC was greater than 100 µM throughout. The TGI with KM12 colon, with DU-145 prostate, with IGROV1 ovarian and with HOP-92 NSCLC was greater than 100 µM throughout.

For the compound `O=C1C=CC2(O[C@H](C3CCCCC3)[C@@H](C3CCCCC3)O2)C(SC(=O)c2ccccc2)C1` (stereo not given in full), the TGI in the experiment on HCC-2998 colon is 5.52 µM; with NCI-H23 lung it was 8.93 µM; with COLO 205 colon, 15 µM; in the experiment on UO-31 renal, 4.31 µM; in the experiment with M14 melanoma it was 7.9 µM; in the experiment with A549 NSCLC it was 45.8 µM. Further, the TGI with KM12 colon is 18.3 µM; in the experiment on DU-145 prostate, 10.4 µM; in the experiment with IGROV1 ovarian it was 9.1 µM; in the experiment with HOP-92 NSCLC, 16.8 µM.

For the compound `Cc1cc(N2CCCCC2)nc2ccc(Cc3ccc4nc(N5CCCCC5)cc(C)c4c3)cc12`, the TGI in the experiment on HCC-2998 colon, in the experiment with NCI-H23 lung, in the experiment on COLO 205 colon, in the experiment on UO-31 renal, in the experiment with M14 melanoma and with A549 NSCLC was greater than 100 µM in each case. The TGI in the experiment on KM12 colon, with DU-145 prostate, with IGROV1 ovarian and with HOP-92 NSCLC was greater than 100 µM each time.

In the case of `COc1ccc(/C=c2\[nH]c3nc(=O)c(N4CCCCC4)c(N)n3c2=O)cc1`, the TGI in the experiment with HCC-2998 colon, with NCI-H23 lung, in the experiment on COLO 205 colon, in the experiment with UO-31 renal, in the experiment with M14 melanoma and in the experiment on A549 NSCLC was greater than 100 µM each time. The TGI in the experiment on KM12 colon, in the experiment on DU-145 prostate, in the experiment on IGROV1 ovarian and in the experiment on HOP-92 NSCLC was greater than 100 µM each time.

Take `O=c1[nH]n(CCc2ccccc2CCl)c2ccc([N+](=O)[O-])cc12`: the TGI in the experiment on HCC-2998 colon, in the experiment with NCI-H23 lung, with COLO 205 colon, in the experiment with UO-31 renal, in the experiment with M14 melanoma and with A549 NSCLC was greater than 100 µM in each case. Moreover, the TGI with KM12 colon, in the experiment with DU-145 prostate, in the experiment with IGROV1 ovarian and in the experiment on HOP-92 NSCLC was greater than 100 µM throughout.

As to `CCOc1ccc2nc3nc(=O)[nH]c(C)c3c(NC(C)(CO)CO)c2c1`, the TGI in the experiment with HCC-2998 colon, in the experiment with NCI-H23 lung, with COLO 205 colon, in the experiment with UO-31 renal, in the experiment on M14 melanoma and in the experiment with A549 NSCLC was greater than 100 µM throughout. Also, the TGI in the experiment on KM12 colon, with DU-145 prostate, in the experiment on IGROV1 ovarian and in the experiment on HOP-92 NSCLC was greater than 100 µM in each case.

As to `Oc1ccc(Cl)cc1-c1cc(-c2ccccc2)nc(=S)[nH]1`, the TGI is greater than 100 µM in the experiment on HCC-2998 colon; greater than 100 µM in the experiment on NCI-H23 lung; greater than 100 µM in the experiment with COLO 205 colon; 68.9 µM with UO-31 renal; greater than 100 µM with M14 melanoma; greater than 100 µM in the experiment on A549 NSCLC. For the same compound, the TGI with KM12 colon is greater than 100 µM; in the experiment on DU-145 prostate it was greater than 100 µM; in the experiment with IGROV1 ovarian it was greater than 100 µM; with HOP-92 NSCLC it was 47.6 µM.
